Key:
Type in all cases: physicochemical
[1] = Photostability in solution in a chemical solvent (Suntest CPS+); settings: 25 μg deposited from methanol, absorbance vs non-irradiated control, in % (unit assumed); for Photostability at 10 MED mean: Suntest irradiation 10 MED; for Photostability at 20 MED mean: Suntest irradiation 20 MED
Excerpt: A Suntest CPS+ (Atlas, Linsengenicht/Altenhasslan, Germany) was used. The Suntest makes it possible to reproduce the solar spectrum and thus to carry out exposures inside at any time without weather constraints.
The radiance of the solar simulator was carefully measured with a spectroradiometer (MSS 2044, Bielefeld, Germany). UVB and UVA intensities were 0.49 mW/cm^2 and 6.32 mW/cm^2, respectively. The MED value defined by COLIPA is 5.6 J/cm^2 in total UV (22). The UV total (UVA+UVB) accounts for 14.8% of the energy delivered by the lamp (power 460 W/m^2). An irradiation dose equivalent to 1 MED corresponds to 37.83 J/cm^2 (in total spectrum) delivered by the lamp.
The Suntest test duration is calculated using the following formula: t=H/E with: […]
The solutions of the compounds are prepared at a concentration of 500 μg/ml in methanol. 50 μl (25 μg) of each solution are deposited in a crystallizer, then irradiated in the Suntest at 5, 10 and/or 20 MED. A non-irradiated control is prepared (deposit of 50 μl of solution and addition of 2.450 ml of methanol). The solvent evaporates during irradiation and the products are taken up in 2.5 ml of methanol. After irradiation, the absorbance of each solution is measured with the UV-visible spectrophotometer (Varian CARY 50 Scan).

[2] = Spectral characteristics: molar extinction coefficient and specific absorbance; settings: ethyl acetate, 10 μg/ml; for Maximum specific absorbance UVA / Maximum specific absorbance UVB: A1cm^1%
Excerpt: The calculation of the molar extinction coefficient (ε) is made from the Beer-Lambert law:
[formula] Wherein: A=absorbance I0=intensity of the incident light I=intensity of the transmitted light ε=molar extinction (or molar absorbance) coefficient in M^−1 cm^−1 l=path length in cm c=concentration in mol/l
The molar extinction coefficient can be expressed with respect to a given mass of the product. It thus makes it possible to be able to compare the coefficients of extinction between products for the same given quantity. This quantity is 1% by weight. The molar extinction coefficient thus becomes the specific absorbance (A1cm^1%).
[formula] Wherein: A1cm^1%=specific absorbance ε=molar extinction coefficient M=molar mass
The spectral characteristics of the compounds in comparison with commercial filters at a concentration of 10 μg/ml are summarized in tables 2-1 and 2-2.
Procedure: The products are dissolved in ethyl acetate to a concentration of 10 μg/ml. The spectra are measured using a dual-beam spectrophotometer (Varian CARY 50 Scan) between 290 nm and 400 nm.

[3] = as above; settings: ethyl acetate, 10 μg/ml; for Maximum specific absorbance UVC: A1cm^1%
[4] = Spectral distribution in UVA and UVB (290-400 nm); settings: range from 290 nm to 400 nm
Excerpt: The products tested are classified according to spectral distribution in UVA and UVB in a range from 290 nm to 400 nm.
It is possible to differentiate them according to their spectral distribution:
Products with a narrow spectrum: • Products absorbing in the range between 280 nm and 320 nm (UVB) • Products absorbing in the range between 320 nm and 400 nm (UVA) Products with a broad spectrum: • Products absorbing in UVB (280-320 nm) and UVA-II […] • Products covering UVB and UVA (280-400 nm).

[5] = In vitro SPF in a chemical solvent (Diffey and Robson); settings: ethyl acetate solution, 10 μg/ml, transmittance 290-400 nm
Experimental: The in vitro methods of determining the protective effectiveness of sun products consist of measuring by transmission spectrophotometry the absorption spectrum of the filter in solution or of the product applied on a substrate with the aim of simulating the surface of the skin. The effectiveness against UVB and/or UVA rays, or the effect on the cutaneous response, are then determined by calculation, taking into account or not the UV radiation action spectrum for the damage considered.
The Sayre/Agin and Diffey/Robson method, used since the 1990s, involves a comparative measurement, with the aid of an integrating-sphere spectroradiometer, of the transition from 290 nm to 400 nm in 5 nm steps, the sample being subjected to UV radiation from a stable known source covering the whole of the UV spectrum (unfiltered xenon).
Diffey and Robson evaluate the erythemal response by the following calculation:
[formula] E(λ)=spectral irradiation in W(m^−2) (nm^−1) at 40° N sun at 20° zenith angle ε=erythematous capacity
The Diffey and Robson formula makes it possible to determine SPF from the measurement of transmittance between 290 nm and 400 nm. Transmittance is measured in solution in ethyl acetate at a concentration of 10 μg/ml using a UV-visible spectrophotometer (Varian CARY 50 Scan).

Structure (SMILES) | Photostability at 10 MED mean [1] | Photostability at 20 MED mean [1] | Maximum specific absorbance UVA [2] | Maximum molar extinction coefficient UVA [2] [M⁻¹ cm⁻¹] | Wavelength of maximum molar extinction coefficient UVA [2] | Wavelength of maximum specific absorbance UVA [2] | Maximum specific absorbance UVC [3] | Maximum molar extinction coefficient UVC [3] [M⁻¹ cm⁻¹] | Wavelength of maximum molar extinction coefficient UVC [3] | Wavelength of maximum specific absorbance UVC [3] | Spectral distribution [4] | Maximum specific absorbance UVB [2] | Maximum molar extinction coefficient UVB [2] | Wavelength of maximum molar extinction coefficient UVB [2] | Wavelength of maximum specific absorbance UVB [2] | SPF [5]
CCN(CC)c1ccc(-c2nnc(O)nc2-c2ccc(N(CC)CC)cc2)cc1 [JR18, 3-hydroxy-5,6-bis(4-diethylaminophenyl)-1,2,4-triazine] | 82.86 | 57.37 |  |  |  |  |  |  |  |  |  |  |  |  |  | 
Oc1ccccc1-c1nnc(-c2ccccc2)c(-c2ccccc2)n1 [JR67, 3-(2-hydroxyphenyl)-5,6-diphenyl-1,2,4-triazine] |  |  | 502 | 16300 | at 330 | at 330 | 811 | 26300 | at 280 | at 280 |  |  |  |  |  | 
Oc1ccc(-c2nnc(-c3ccccc3)c(-c3ccccc3)n2)cc1 [JR68, 3-(4-hydroxyphenyl)-5,6-diphenyl-1,2,4-triazine] | 98.2 | 95.33 | 424 | 13800 | at 330 | at 330 | 702 | 22800 | at 280 | at 280 | absorb in UVB (280-320 nm) and UVA-II (280-340 nm) |  |  |  |  | 
COc1ccc(-c2nnc(-c3ccc(OC)cc3)c(-c3ccc(OC)cc3)n2)cc1 [JR70, 3-(4-methoxyphenyl)-5,6-bis(4-methoxyphenyl)-1,2,4-triazine] | 44.51 | 30.83 |  |  |  |  |  |  |  |  | absorb in UVB | 982 | 29200 M⁻¹ cm⁻¹ | at 310 | at 310 | 
COc1ccc(-c2nnc(N)nc2-c2ccc(OC)cc2)cc1 [JR77, 3-amino-5,6-bis(4-methoxyphenyl)-1,2,4-triazine] | 73.03 | 61.14 | 249 | 7600 | at 360 | at 360 | 631 | 19300 | at 280 | at 280 | absorb in UVB (280-320 nm) and UVA-II (280-340 nm) |  |  |  |  | 47.16
COc1ccc(-c2nnc(-c3ccccc3O)nc2-c2ccc(OC)cc2)cc1 [JR89, 3-(2-hydroxyphenyl)-5,6-bis(4-methoxyphenyl)-1,2,4-triazine] | 97.39 | 98.72 | 526 at | 20300 | at 335 | 335 | 502 | 19300 | at 280 | at 280 | absorb in UVB (280-320 nm) and UVA-II (280-340 nm) |  |  |  |  | 
COc1ccc(-c2nnc(-c3cccc(C#N)c3)nc2-c2ccc(OC)cc2)cc1 [JR113, 3-(3-cyanophenyl)-5,6-bis(4-methoxyphenyl)-1,2,4-triazine] | 98.07 | 97.67 | 570 | 22469 | at 340 | at 340 |  |  |  |  | absorb in UVB and UVA | 721 | 28800 M⁻¹ cm⁻¹ | at 295 | at 295 | 67.74
COc1ccc(-c2nnc(-c3cc(O)c(O)c(O)c3)nc2-c2ccc(OC)cc2)cc1 [JR115, 3-(3,4,5-hydroxyphenyl)-5,6-bis(4-methoxyphenyl)-1,2,4-triazine] | 57.63 | 46.42 |  |  |  |  |  |  |  |  | absorb in UVB (280-320 nm) and UVA-II (280-340 nm) | 747 | 34300 M⁻¹ cm⁻¹ | at 310 | at 310 | 

Now from value to molecule, other results behind:

Photostability at 10 MED mean [1] | Photostability at 20 MED mean [1] | Maximum specific absorbance UVA [2] | Maximum molar extinction coefficient UVA [2] [M⁻¹ cm⁻¹] | Wavelength of maximum molar extinction coefficient UVA [2] | Wavelength of maximum specific absorbance UVA [2] | Maximum specific absorbance UVC [3] | Maximum molar extinction coefficient UVC [3] [M⁻¹ cm⁻¹] | Wavelength of maximum molar extinction coefficient UVC [3] | Wavelength of maximum specific absorbance UVC [3] | Spectral distribution [4] | Maximum specific absorbance UVB [2] | Maximum molar extinction coefficient UVB [2] | Wavelength of maximum molar extinction coefficient UVB [2] | Wavelength of maximum specific absorbance UVB [2] | Structure (SMILES) | SPF [5]
58.45 | 47.81 | 498 at | 19600 | at 350 | 350 | 655 at | 25800 | at 270 | 270 | absorb in UVB and UVA | 688 at | 27100 at M^−1 cm^−1 | 300 | 300 | COc1ccc(-c2nnc(-c3ccc(C#N)cc3)nc2-c2ccc(OC)cc2)cc1 [JR107, 3-(4-cyanophenyl)-5,6-bis(4-methoxyphenyl)-1,2,4-triazine] | 
92.07 | 91.43 | 661 | 26000 | at 325 | at 352 |  |  |  |  | absorb in UVB and UVA |  |  |  |  | COc1ccc(-c2nnc(-c3ccccc3C#N)nc2-c2ccc(OC)cc2)cc1 [JR114, 3-(2-cyanophenyl)-5,6-bis(4-methoxyphenyl)-1,2,4-triazine] | 
 |  | 552 | 36400 | at 345 | at 345 |  |  |  |  | absorb in UVB and UVA | 556 | 36600 M⁻¹ cm⁻¹ | at 305 | at 305 | CC(C)(C)CC(C)(C)c1cc(Cc2cc(C(C)(C)CC(C)(C)C)cc(-n3nc4ccccc4n3)c2O)c(O)c(-n2nc3ccccc3n2)c1 [Tinosorb M ®, reference compound] | 54.07

Source: patent US8053573B2, “Monomer 5, 6-diphenyl-1.2.4-traizinic derivatives and the use thereof” (Pierre Fabre Dermo-Cosmetique, priority 2004, dated 2011)
